Results taken from ChEMBL document CHEMBL4706752 (ACS Med Chem Lett, 2021).

Key:
[1] = Metabolic stability in human liver microsomes assessed as compound remaining after 10 mins; type: ADME, Microsome; conditions: read-out: Stabilty
[2] = Metabolic stability in mouse liver microsomes assessed as compound remaining after 10 mins; type: ADME, Microsome; conditions: read-out: Stabilty
[3] = Apparent permeability across apical to basolateral membrane in human Caco2 cells; type: ADME, cell-based; conditions: Caco-2
[4] = Protein binding in human serum assessed as fraction unbound; type: ADME, cell-free; conditions: read-out: PB
[5] = Protein binding in mouse serum assessed as fraction unbound; type: ADME, cell-free; conditions: read-out: PB
[6] = target: T1, Cytochrome P450 2C8 (Homo sapiens, UniProt P10632); test: Inhibition of CYP2C8 (unknown origin); type: ADME
T1 sequence (P10632 whole entry): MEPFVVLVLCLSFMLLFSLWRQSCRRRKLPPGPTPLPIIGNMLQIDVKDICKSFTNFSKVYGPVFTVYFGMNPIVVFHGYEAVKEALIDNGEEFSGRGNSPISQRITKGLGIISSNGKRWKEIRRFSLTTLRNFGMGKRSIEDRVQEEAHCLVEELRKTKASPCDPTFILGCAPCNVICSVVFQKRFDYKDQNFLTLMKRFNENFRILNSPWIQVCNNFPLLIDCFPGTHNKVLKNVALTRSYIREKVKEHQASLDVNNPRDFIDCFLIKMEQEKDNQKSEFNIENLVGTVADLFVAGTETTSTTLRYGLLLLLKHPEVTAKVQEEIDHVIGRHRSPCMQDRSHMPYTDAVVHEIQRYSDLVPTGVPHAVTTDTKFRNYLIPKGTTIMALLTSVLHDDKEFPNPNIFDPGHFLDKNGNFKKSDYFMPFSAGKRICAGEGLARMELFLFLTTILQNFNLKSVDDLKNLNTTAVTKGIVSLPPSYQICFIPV

[7] = target: Cytochrome P450 2C9 (Homo sapiens, UniProt P11712); test: Inhibition of CYP2C9 (unknown origin); type: ADME
Chain of Cytochrome P450 2C9 (P11712 whole entry): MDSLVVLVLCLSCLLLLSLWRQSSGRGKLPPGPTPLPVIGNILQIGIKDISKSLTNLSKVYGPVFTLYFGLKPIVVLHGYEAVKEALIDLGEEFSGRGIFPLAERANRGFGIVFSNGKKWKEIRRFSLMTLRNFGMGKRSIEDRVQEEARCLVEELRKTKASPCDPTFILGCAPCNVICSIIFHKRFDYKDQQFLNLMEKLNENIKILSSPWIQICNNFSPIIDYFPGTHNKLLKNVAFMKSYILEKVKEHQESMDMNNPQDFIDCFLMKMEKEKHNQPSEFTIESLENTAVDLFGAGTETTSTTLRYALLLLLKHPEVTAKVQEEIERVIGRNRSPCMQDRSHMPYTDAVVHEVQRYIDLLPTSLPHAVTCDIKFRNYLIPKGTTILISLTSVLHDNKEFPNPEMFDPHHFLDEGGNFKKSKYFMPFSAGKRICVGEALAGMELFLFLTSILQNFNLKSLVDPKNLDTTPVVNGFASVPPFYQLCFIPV

[8] = target: Cytochrome P450 2C19 (Homo sapiens, UniProt P33261); test: Inhibition of CYP2C19 (unknown origin); type: ADME
Chain of Cytochrome P450 2C19 (P33261 whole entry): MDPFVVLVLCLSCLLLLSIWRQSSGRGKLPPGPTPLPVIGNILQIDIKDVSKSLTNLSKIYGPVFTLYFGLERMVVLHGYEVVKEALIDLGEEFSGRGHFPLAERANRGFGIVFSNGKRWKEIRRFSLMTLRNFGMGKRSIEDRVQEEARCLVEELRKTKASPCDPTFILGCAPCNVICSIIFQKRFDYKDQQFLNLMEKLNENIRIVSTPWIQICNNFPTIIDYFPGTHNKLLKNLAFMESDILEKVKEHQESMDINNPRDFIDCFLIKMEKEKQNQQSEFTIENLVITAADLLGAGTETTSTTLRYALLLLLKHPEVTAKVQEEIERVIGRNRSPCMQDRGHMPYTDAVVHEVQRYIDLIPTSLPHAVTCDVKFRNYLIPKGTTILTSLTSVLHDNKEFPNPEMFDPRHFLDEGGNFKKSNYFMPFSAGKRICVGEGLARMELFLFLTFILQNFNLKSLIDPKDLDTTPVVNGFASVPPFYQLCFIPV

[9] = target: Cytochrome P450 3A4 (Homo sapiens, UniProt P08684); test: Inhibition of CYP3A4 (unknown origin); type: ADME
Chain of Cytochrome P450 3A4 (P08684 whole entry, the tested form may be a part): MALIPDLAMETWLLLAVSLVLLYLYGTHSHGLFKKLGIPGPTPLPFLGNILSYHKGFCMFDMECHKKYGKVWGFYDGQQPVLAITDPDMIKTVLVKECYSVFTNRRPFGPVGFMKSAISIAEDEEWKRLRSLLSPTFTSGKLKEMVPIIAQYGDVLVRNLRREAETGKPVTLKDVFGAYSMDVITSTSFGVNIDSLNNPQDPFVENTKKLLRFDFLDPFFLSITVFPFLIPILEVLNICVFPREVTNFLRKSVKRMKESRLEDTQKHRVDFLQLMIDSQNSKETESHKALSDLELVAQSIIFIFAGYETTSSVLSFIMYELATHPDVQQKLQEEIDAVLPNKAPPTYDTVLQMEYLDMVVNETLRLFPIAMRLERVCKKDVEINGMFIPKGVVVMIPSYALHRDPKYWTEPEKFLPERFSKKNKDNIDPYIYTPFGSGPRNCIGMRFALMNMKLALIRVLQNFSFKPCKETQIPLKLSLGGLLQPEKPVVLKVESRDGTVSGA

[10] = target: T2, Nuclear receptor ROR-gamma (Homo sapiens, UniProt P51449); test: Inverse agonist activity at human Gal4-fused RORgammat expressed in human Jurkat cells luciferase reporter gene assay; type: cell-based
T2 sequence (P51449 whole entry): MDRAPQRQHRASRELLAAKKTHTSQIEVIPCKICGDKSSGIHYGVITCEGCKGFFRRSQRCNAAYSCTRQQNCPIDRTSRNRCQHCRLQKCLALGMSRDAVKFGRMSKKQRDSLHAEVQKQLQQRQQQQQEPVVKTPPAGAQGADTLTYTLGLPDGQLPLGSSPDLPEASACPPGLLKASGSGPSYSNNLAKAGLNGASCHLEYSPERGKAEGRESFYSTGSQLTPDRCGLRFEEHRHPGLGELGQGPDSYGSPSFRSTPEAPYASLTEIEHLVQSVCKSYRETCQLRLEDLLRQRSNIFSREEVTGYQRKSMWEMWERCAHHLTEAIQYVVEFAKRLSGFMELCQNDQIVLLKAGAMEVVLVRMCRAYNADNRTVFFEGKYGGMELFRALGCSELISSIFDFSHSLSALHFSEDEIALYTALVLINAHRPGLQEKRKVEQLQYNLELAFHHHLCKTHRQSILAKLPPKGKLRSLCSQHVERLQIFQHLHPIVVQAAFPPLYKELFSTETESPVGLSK

[11] = target: T2, Nuclear receptor ROR-gamma; test: Inverse agonist activity at RORgammat in human whole blood assessed as inhibition of anti-CD3/anti-CD28 monoclonal antibodies-stimulated IL-17A production measured by ELISA; type: tissue-based
[12] = Efflux ratio of apparent permeability across basolateral to apical side over apical to basolateral side in Caco2 cells; type: ADME, cell-based; conditions: human, Caco-2

| remaining at 10 min [1] [%] | remaining at 10 min [2] [%] | Papp A→B [3] [×10⁻⁶ cm/s] | fraction unbound [4] | fraction unbound [5] | IC50 [6] [µM] | IC50 [7] [µM] | IC50 [8] [µM] | IC50 [9] [µM] | EC50 [10] [µM] | EC50 [11] [µM] | efflux ratio [12] | SMILES |
| --- | --- | --- | --- | --- | --- | --- | --- | --- | --- | --- | --- | --- |
| 97 | 86 | 15 | 0.002 | 0.006 | 12 | 12 | 7.7 | 11 | – | – | – | CC(C)(O)CC(=O)N[C@@H]1CC[C@@]2(S(=O)(=O)c3ccc(F)cc3)c3ccc(C(F)(C(F)(F)F)C(F)(F)F)cc3CC[C@@H]12 |
| 100 | 69 | 12 | 0.12 | 0.068 | > 20 | – | – | 12 | – | – | – | N#CCCN1C(=O)CC[C@H]1C(=O)N1CC[C@@]2(S(=O)(=O)c3ccc(F)cc3)c3cnc(C(F)(C(F)(F)F)C(F)(F)F)cc3CC[C@@H]12 |
| 93 | 100 | 13 | 0.008 | 0.068 | 9.4 | – | – | 13 | – | – | – | O=C(C1CCS(=O)(=O)CC1)N1CC[C@@]2(S(=O)(=O)c3ccc(F)cc3)c3ccc(C(F)(C(F)(F)F)C(F)(F)F)cc3CC[C@@H]12 |
| 100 | 96 | – | – | – | – | – | – | – | 0.071 | – | – | O=C(C1CCS(=O)(=O)CC1)N1CC[C@@]2(S(=O)(=O)c3ccc(F)cc3)c3ncc(C(F)(C(F)(F)F)C(F)(F)F)cc3CC[C@@H]12 |
| 83 | 82 | 9.4 | 0.2 | 0.16 | > 20 | – | – | > 20 | – | – | – | N#CCCN1C(=O)CC[C@H]1C(=O)N1CC[C@@]2(S(=O)(=O)c3ccc(F)cc3)c3ncc(C(F)(C(F)(F)F)C(F)(F)F)cc3CC[C@@H]12 |
| 100 | 91 | 23 | – | 0.05 | 16 | – | – | > 20 | – | – | – | O=C(C1CCS(=O)(=O)CC1)N1CC[C@@]2(S(=O)(=O)c3ccc(F)cc3)c3ccc(C(F)(C(F)(F)F)C(F)(F)F)nc3CC[C@@H]12 |
| 100 | 95 | 7.3 | – | 0.003 | 6.5 | 5.5 | > 20 | 5.8 | 0.0087 | 0.05 | 0.5 | O=C(N[C@@H]1CC[C@@]2(S(=O)(=O)c3ccc(F)cc3)c3ccc(C(F)(C(F)(F)F)C(F)(F)F)cc3CC[C@@H]12)C1CCS(=O)(=O)CC1 |
| 92 | 85 | 17 | 0.018 | 0.017 | 13 | – | – | 10 | – | – | – | N#CCCN1C(=O)CC[C@H]1C(=O)N1CC[C@@]2(S(=O)(=O)c3ccc(F)cc3)c3ccc(C(F)(C(F)(F)F)C(F)(F)F)cc3CC[C@@H]12 |
| 100 | 87 | 12 | – | 0.018 | 6.3 | 8.5 | 16 | 9.1 | 0.006 | 0.101 | 0.5 | CC(C)(O)CC(=O)N[C@@H]1CC[C@@]2(S(=O)(=O)c3ccc(F)cc3)c3ccc(C(F)(C(F)(F)F)C(F)(F)F)nc3CC[C@@H]12 |
| 89 | 83 | 7.6 | – | 0.002 | 13 | 9.2 | 15 | > 20 | 0.0055 | 0.12 | 0.9 | C[C@](O)(CS(C)(=O)=O)C(=O)N[C@@H]1CC[C@@]2(S(=O)(=O)c3ccc(F)cc3)c3ccc(C(F)(C(F)(F)F)C(F)(F)F)cc3CC[C@@H]12 |
| 100 | 100 | 18 | – | 0.023 | 8.3 | 3.2 | > 20 | > 20 | 0.0039 | 0.067 | 0.5 | CC(C)(O)C(=O)N[C@@H]1CC[C@@]2(S(=O)(=O)c3ccc(F)cc3)c3ccc(C(F)(C(F)(F)F)C(F)(F)F)nc3CC[C@@H]12 |
| 100 | 82 | 8.1 | – | 0.022 | 16 | 9.5 | > 20 | > 20 | 0.0084 | 0.067 | 2.2 | O=C(N[C@@H]1CC[C@@]2(S(=O)(=O)c3ccc(F)cc3)c3ccc(C(F)(C(F)(F)F)C(F)(F)F)nc3CC[C@@H]12)C1CCS(=O)(=O)CC1 |
| 100 | 83 | 19 | 0.071 | 0.051 | > 20 | – | – | 19 | 0.024 | 0.031 | 1.7 | N#CCCN1C(=O)CC[C@H]1C(=O)N1CC[C@@]2(S(=O)(=O)c3ccc(F)cc3)c3ccc(C(F)(C(F)(F)F)C(F)(F)F)nc3CC[C@@H]12 |
| 97 | 100 | – | – | – | – | – | – | – | – | – | – | C[C@](O)(CS(C)(=O)=O)C(=O)N[C@@H]1CC[C@@]2(S(=O)(=O)c3ccc(F)cc3)c3ccc(C(F)(C(F)(F)F)C(F)(F)F)nc3CC[C@@H]12 |
| 98 | 84 | 6.4 | – | 0.004 | 5 | 12 | 15 | > 20 | 0.0025 | 0.039 | 0.5 | C[C@@](O)(CS(C)(=O)=O)C(=O)N[C@@H]1CC[C@@]2(S(=O)(=O)c3ccc(F)cc3)c3ccc(C(F)(C(F)(F)F)C(F)(F)F)cc3CC[C@@H]12 |
| 92 | 49 | – | – | – | – | – | – | – | 0.017 | 0.023 | – | O=C(C1CCS(=O)(=O)CC1)N1CC[C@@]2(S(=O)(=O)c3ccc(F)cc3)c3cnc(C(F)(C(F)(F)F)C(F)(F)F)cc3CC[C@@H]12 |
